Experiments:
[1] = biological target: T1, Human neuropeptide Y (NPY-Y1) (Homo sapiens, UniProt P25929); assay: Radioligand binding, human neuropeptide Y NPY-Y1 membranes, FlashPlate, [125I]-PYY; conditions: compound at 10 μM, [125I]-PYY; for A9: inhibition of radioligand binding: FlashPlate
T1 construct: purchased Perkin Elmer Biosignal
T1 sequence (P25929 1-384): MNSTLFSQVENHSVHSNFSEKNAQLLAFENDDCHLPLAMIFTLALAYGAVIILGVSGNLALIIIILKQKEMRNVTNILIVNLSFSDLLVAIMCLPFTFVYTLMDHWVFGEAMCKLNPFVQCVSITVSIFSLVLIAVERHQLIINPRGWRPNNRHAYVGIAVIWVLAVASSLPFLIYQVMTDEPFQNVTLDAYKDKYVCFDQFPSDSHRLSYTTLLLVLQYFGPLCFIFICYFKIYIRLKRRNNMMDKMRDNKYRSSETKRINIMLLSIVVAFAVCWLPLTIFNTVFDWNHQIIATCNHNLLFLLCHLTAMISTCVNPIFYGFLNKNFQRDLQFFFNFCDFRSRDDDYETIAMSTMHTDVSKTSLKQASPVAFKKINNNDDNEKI
How it was run: (§1)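 Cloned human receptor membranes were coated onto FlashPlate wells and incubated with radioligand and compound (added from a 0.5 mM DMSO daughter plate) for 1 hour at room temperature in the dark. Scintillation counting gave percent inhibition, with DMSO defining total and reference ligand defining non-specific binding.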

[2] = biological target: T2, Mouse urotensin (mUR2) (Mus musculus, UniProt Q8VIH9); assay: Radioligand binding, mouse urotensin mUR2 membranes, FlashPlate, [125I]-Urotensin II; conditions: compound at 10 μM, [125I]-Urotensin II; for A11: inhibition of radioligand binding: FlashPlate
T2 construct: purchased Perkin Elmer Biosignal
T2 sequence (Q8VIH9 1-385): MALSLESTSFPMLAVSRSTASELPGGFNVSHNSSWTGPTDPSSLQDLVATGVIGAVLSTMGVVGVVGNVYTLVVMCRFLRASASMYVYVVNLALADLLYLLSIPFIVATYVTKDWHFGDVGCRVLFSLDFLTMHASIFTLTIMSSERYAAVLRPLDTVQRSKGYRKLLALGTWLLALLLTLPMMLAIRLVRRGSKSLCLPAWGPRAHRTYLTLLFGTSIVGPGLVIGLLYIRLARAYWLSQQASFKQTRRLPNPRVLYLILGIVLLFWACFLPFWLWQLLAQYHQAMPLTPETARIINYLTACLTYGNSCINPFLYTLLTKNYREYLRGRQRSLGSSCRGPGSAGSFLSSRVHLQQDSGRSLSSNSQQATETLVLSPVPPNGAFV
How it was run: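 Cloned mouse urotensin (mUR2) receptor membranes from Perkin Elmer Biosignal were immobilized in FlashPlate microplates using a proprietary coating. Each well got 19.5 μl buffer, then 0.5 μl of DMSO, reference ligand, or compound. Adding 5 μl of [125I]-Urotensin II, diluted to 5× final concentration in binding buffer, started binding. Plates were sealed with TopSeal-A and incubated 1 hour at room temperature in the dark. Wells were counted for 30 seconds each on a TopCount after a 60-second delay, and percentage inhibition was calculated.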

[3] = biological target: T3, Human neurokinin (NK1) (Homo sapiens, UniProt P25103); assay: Radioligand binding, human neurokinin NK1 membranes, filtration, [125I]-Substance P; conditions: compound at 10 μM, [125I]-Substance P; for A8: inhibition of radioligand binding: filtration
T3 construct: purchased Perkin Elmer Biosignal
T3 sequence (P25103 whole entry): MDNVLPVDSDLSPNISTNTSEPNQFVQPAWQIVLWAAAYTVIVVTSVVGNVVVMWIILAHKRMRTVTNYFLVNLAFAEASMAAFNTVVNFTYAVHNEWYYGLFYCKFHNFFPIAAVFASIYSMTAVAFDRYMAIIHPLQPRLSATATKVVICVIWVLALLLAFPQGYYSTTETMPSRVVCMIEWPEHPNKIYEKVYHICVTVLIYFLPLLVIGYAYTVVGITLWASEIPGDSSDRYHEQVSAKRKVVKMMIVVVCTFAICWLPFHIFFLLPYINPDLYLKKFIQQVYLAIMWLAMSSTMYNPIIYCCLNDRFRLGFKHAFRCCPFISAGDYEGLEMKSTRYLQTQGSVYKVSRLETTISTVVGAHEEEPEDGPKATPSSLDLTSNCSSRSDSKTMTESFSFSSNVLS
How it was run: (§2)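 Filtration binding on cloned human receptor membranes (1 Unit/well), [125I]-Substance P for NK1 and [3H]-Diprenorphine for KOP, 1 h at room temperature. Filters PEI-presoaked, washed with cold 50 mM Tris-HCl pH 7.4, counted by scintillation; percent inhibition calculated, reference ligand defining non-specific binding.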

[4] = biological target: T4, Human melanocortin (MC5) (Homo sapiens, UniProt P33032); assay: Radioligand binding, human melanocortin MC5 membranes, FlashPlate, [125I]-NDP-αMSH; conditions: compound at 10 μM, [125I]-NDP-αMSH; for A5: inhibition of radioligand binding: FlashPlate
T4 construct: purchased Perkin Elmer Biosignal
T4 sequence (P33032 whole entry): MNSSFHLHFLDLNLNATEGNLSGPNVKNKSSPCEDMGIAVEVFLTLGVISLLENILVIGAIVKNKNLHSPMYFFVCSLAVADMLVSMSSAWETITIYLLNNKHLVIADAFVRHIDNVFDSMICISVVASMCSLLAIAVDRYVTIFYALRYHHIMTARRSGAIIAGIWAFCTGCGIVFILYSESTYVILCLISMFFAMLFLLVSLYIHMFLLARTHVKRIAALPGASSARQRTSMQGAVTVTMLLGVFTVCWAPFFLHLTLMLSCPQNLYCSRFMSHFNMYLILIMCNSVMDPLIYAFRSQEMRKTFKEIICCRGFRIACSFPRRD
How it was run: as §1

[5] = biological target: T5, Human melanin-concentrating hormone (MCH1) (Homo sapiens, UniProt Q99705); assay: Radioligand binding, human melanin-concentrating hormone MCH1 membranes, FlashPlate, [125I]-S36057; conditions: compound at 10 μM; for A6: inhibition of radioligand binding, human melanin-concentrating hormone (MCH1): [125I]-S36057; for A6: inhibition of radioligand binding: [125I]-S36057, FlashPlate
T5 construct: purchased Perkin Elmer Biosignal
T5 sequence (Q99705 whole entry): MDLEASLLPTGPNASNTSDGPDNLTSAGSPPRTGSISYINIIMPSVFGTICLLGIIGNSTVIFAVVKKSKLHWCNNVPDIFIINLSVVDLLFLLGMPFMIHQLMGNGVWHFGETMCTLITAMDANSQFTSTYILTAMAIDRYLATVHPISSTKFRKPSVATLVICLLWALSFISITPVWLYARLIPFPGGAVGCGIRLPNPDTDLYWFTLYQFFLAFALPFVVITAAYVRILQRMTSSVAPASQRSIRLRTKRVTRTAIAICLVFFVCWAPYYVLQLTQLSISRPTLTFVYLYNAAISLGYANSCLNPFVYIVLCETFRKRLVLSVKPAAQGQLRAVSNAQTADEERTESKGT
How it was run: as §1

[6] = biological target: T6, Human μ-opioid (MOP) (Homo sapiens, UniProt P35372); assay: Radioligand binding, human μ-opioid (MOP) membranes, FlashPlate, [3H]-Naloxone; conditions: compound at 10 μM, [3H]-Naloxone; for A7: inhibition of radioligand binding: FlashPlate
T6 construct: purchased Perkin Elmer Biosignal
T6 sequence (P35372 whole entry): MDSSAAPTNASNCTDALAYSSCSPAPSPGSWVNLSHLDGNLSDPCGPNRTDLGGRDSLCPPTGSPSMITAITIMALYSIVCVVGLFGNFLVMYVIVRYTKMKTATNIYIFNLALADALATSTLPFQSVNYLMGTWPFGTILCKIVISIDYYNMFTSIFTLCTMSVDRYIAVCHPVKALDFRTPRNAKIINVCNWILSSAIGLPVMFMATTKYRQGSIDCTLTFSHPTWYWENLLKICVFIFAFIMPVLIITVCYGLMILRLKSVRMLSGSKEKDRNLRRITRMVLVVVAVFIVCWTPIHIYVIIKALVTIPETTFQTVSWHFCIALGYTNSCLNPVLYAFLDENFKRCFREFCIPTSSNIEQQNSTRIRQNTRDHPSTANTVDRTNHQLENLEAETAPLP
How it was run: as §1

[7] = biological target: T7, Human δ-opioid (DOP) (Homo sapiens, UniProt P41143); assay: Radioligand binding, human δ-opioid (DOP) membranes, FlashPlate, [3H]-Bremazocine; conditions: compound at 10 μM, [3H]-Bremazocine; for A1: inhibition of radioligand binding: FlashPlate
T7 construct: purchased Perkin Elmer Biosignal
T7 sequence (P41143 whole entry): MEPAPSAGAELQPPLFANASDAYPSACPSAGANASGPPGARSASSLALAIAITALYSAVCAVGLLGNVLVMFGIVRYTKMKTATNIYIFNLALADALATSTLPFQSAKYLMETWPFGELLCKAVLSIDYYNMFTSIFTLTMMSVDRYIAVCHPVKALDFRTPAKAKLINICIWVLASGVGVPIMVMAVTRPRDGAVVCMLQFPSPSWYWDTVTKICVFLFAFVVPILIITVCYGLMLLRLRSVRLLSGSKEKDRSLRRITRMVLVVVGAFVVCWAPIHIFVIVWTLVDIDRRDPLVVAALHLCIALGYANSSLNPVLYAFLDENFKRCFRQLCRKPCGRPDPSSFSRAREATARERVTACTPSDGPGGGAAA
How it was run: as §1

[8] = biological target: T8, Human Melanocortin (MC4) (Homo sapiens, UniProt P32245); assay: Radioligand binding, human melanocortin MC4 membranes, FlashPlate, [125I]-NDP-αMSH; conditions: compound at 10 μM, [125I]-NDP-αMSH; for A4: inhibition of radioligand binding: FlashPlate
T8 construct: purchased Perkin Elmer Biosignal
T8 sequence (P32245 whole entry): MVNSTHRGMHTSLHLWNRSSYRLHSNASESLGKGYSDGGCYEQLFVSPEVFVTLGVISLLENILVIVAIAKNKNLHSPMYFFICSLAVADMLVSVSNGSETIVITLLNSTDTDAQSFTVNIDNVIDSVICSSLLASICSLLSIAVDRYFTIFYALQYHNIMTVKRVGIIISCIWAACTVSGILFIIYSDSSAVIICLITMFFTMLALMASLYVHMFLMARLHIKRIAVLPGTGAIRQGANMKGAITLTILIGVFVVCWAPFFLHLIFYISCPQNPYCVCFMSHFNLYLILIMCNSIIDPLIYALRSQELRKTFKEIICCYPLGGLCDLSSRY
How it was run: as §1

[9] = biological target: T9, Human opioid (ORL1) (Homo sapiens, UniProt P41146); assay: Radioligand binding, human opioid ORL1 membranes, FlashPlate, [125I]-Nociceptin; conditions: compound at 10 μM, [125I]-Nociceptin; for A10: inhibition of radioligand binding: FlashPlate
T9 construct: purchased Perkin Elmer Biosignal
T9 sequence (P41146 whole entry): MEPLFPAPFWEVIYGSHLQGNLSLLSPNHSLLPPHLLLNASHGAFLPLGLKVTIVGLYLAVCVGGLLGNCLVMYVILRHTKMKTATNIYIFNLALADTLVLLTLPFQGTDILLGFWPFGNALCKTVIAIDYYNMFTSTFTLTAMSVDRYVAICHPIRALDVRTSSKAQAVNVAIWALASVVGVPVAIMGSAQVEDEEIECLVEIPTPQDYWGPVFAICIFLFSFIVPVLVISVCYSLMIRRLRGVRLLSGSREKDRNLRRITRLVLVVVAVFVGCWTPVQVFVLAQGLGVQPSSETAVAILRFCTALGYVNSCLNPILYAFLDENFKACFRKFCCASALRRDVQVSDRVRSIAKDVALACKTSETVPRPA
How it was run: as §1

[10] = biological target: T10, Human Melanocortin (MC3) (Homo sapiens, UniProt P41968); assay: Radioligand binding, human melanocortin MC3 membranes, FlashPlate, [125I]-NDP-αMSH; conditions: compound at 10 μM, [125I]-NDP-αMSH; for A3: inhibition of radioligand binding: FlashPlate
T10 construct: purchased Perkin Elmer Biosignal
T10 sequence (P41968 whole entry): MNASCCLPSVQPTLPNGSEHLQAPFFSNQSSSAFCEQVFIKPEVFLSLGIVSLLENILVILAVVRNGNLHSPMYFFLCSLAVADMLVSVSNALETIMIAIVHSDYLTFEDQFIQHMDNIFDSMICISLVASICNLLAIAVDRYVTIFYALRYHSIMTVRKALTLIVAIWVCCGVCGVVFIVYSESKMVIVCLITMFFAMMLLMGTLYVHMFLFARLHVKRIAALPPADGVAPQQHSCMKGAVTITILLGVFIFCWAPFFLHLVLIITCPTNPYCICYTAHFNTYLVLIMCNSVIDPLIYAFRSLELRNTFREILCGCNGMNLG
How it was run: as §1

[11] = biological target: T11, Human κ-Opioid (KOP) (Homo sapiens, UniProt P41145); assay: Radioligand binding, human κ-opioid (KOP) membranes, filtration, [3H]-Diprenorphine; conditions: compound at 10 μM, [3H]-Diprenorphine; for A2: inhibition of radioligand binding: filtration
T11 construct: purchased Perkin Elmer Biosignal
T11 sequence (P41145 whole entry): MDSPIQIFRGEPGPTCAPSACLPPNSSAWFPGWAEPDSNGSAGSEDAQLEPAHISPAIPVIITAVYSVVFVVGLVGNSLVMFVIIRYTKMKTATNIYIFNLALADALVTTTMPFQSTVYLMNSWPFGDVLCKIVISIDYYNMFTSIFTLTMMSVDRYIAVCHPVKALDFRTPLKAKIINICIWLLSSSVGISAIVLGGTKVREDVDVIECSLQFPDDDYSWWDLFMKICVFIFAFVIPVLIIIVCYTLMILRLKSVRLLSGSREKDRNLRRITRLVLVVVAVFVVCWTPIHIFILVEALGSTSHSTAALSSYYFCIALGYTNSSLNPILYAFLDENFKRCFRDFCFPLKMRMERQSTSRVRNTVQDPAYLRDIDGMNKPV
How it was run: as §2

Row | Compound | A9: inhibition of radioligand binding, human neuropeptide Y (NPY-Y1) [1] | A11: inhibition of radioligand binding, mouse urotensin (mUR2) [2] | A5: inhibition of radioligand binding, human melanocortin (MC5) [4] | A6: inhibition of radioligand binding, human melanin-concentrating hormone (MCH1) [5] | A7: inhibition of radioligand binding, human μ-opioid (MOP) [6] | A1: inhibition of radioligand binding, human δ-opioid (DOP) [7] | A4: inhibition of radioligand binding, human melanocortin (MC4) [8] | A10: inhibition of radioligand binding, human opioid (ORL1) [9] | A3: inhibition of radioligand binding, human melanocortin (MC3) [10] | A2: inhibition of radioligand binding, human κ-opioid (KOP) [11] | A9: inhibition of radioligand binding [1] | A11: inhibition of radioligand binding [2] | A8: inhibition of radioligand binding [3] | A5: inhibition of radioligand binding [4] | A6: inhibition of radioligand binding [5] | A7: inhibition of radioligand binding [6] | A1: inhibition of radioligand binding [7] | A4: inhibition of radioligand binding [8] | A10: inhibition of radioligand binding [9] | A3: inhibition of radioligand binding [10] | further results
1 | COCC1OC(OCCc2ccccc2)C(NC(=O)CNC(=N)N)C(OCc2ccc(-c3ccccc3)cc2)C1O (stereo not drawn) [compound 549] | − (“−” indicates less than 50% inhibition at 10 μM) | − (“−” indicates less than 50% inhibition at 10 μM) | + (“+” indicates greater than 50% inhibition at 10 μM) | − (“−” indicates less than 50% inhibition at 10 μM) | − (“−” indicates less than 50% inhibition at 10 μM) | − (“−” indicates less than 50% inhibition at 10 μM) | − (“−” indicates less than 50% inhibition at 10 μM) | − (“−” indicates less than 50% inhibition at 10 μM) | − (“−” indicates less than 50% inhibition at 10 μM) | − (“−” indicates less than 50% inhibition at 10 μM) |  |  |  |  |  |  |  |  |  |  | A8: inhibition of radioligand binding, human neurokinin (NK1) ([3]; 10 µM): − (“−” indicates less than 50% inhibition at 10 μM)
2 | CSC1O[C@H](COCc2ccc3ccccc3c2)[C@@H](O)[C@@H](OCc2ccc(-c3ccccc3)cc2)[C@H]1NC(=O)CNC(=N)N (stereo partly drawn) [compound 296] | − (“−” indicates less than 50% inhibition at 10 μM) | − (“−” indicates less than 50% inhibition at 10 μM) | − (“−” indicates less than 50% inhibition at 10 μM) | − (“−” indicates less than 50% inhibition at 10 μM) | − (“−” indicates less than 50% inhibition at 10 μM) | − (“−” indicates less than 50% inhibition at 10 μM) | − (“−” indicates less than 50% inhibition at 10 μM) | − (“−” indicates less than 50% inhibition at 10 μM) | − (“−” indicates less than 50% inhibition at 10 μM) | − (“−” indicates less than 50% inhibition at 10 μM) |  |  |  |  |  |  |  |  |  |  | A8: inhibition of radioligand binding, human neurokinin (NK1) [3]: + (“+” indicates greater than 50% inhibition at 10 μM)
3 | COCC1OC(OCCc2ccccc2)C(NC(=O)CCCN)C(OCc2ccc(Cl)cc2)C1O (stereo not drawn) [compound 222] |  |  |  |  |  |  |  |  |  |  | − (“−” indicates less than 50% inhibition at 10 μM) | − (“−” indicates less than 50% inhibition at 10 μM) | + (“+” indicates greater than 50% inhibition at 10 μM) | + (“+” indicates greater than 50% inhibition at 10 μM) | − (“−” indicates less than 50% inhibition at 10 μM) | − (“−” indicates less than 50% inhibition at 10 μM) | − (“−” indicates less than 50% inhibition at 10 μM) | − (“−” indicates less than 50% inhibition at 10 μM) | − (“−” indicates less than 50% inhibition at 10 μM) | − (“−” indicates less than 50% inhibition at 10 μM) | A2: inhibition of radioligand binding [11]: − (“−” indicates less than 50% inhibition at 10 μM)
4 | CSC1O[C@H](COCc2ccc(-c3ccccc3)cc2)[C@@H](O)[C@@H](OCc2ccc(Cl)cc2)[C@H]1NC(=O)CCN (stereo partly drawn) [compound 276] |  |  |  |  |  |  |  |  |  |  | − (“−” indicates less than 50% inhibition at 10 μM) | − (“−” indicates less than 50% inhibition at 10 μM) | + (“+” indicates greater than 50% inhibition at 10 μM) | − (“−” indicates less than 50% inhibition at 10 μM) | − (“−” indicates less than 50% inhibition at 10 μM) | − (“−” indicates less than 50% inhibition at 10 μM) | − (“−” indicates less than 50% inhibition at 10 μM) | − (“−” indicates less than 50% inhibition at 10 μM) | − (“−” indicates less than 50% inhibition at 10 μM) | − (“−” indicates less than 50% inhibition at 10 μM) | A2: inhibition of radioligand binding [11]: − (“−” indicates less than 50% inhibition at 10 μM)
5 | COCC1OC(OCCc2ccccc2)C(NC(=O)CCCN)C(OCc2ccc3ccccc3c2)C1O (stereo not drawn) [compound 228] |  |  |  |  |  |  |  |  |  |  | − (“−” indicates less than 50% inhibition at 10 μM) | − (“−” indicates less than 50% inhibition at 10 μM) | + (“+” indicates greater than 50% inhibition at 10 μM) | + (“+” indicates greater than 50% inhibition at 10 μM) | − (“−” indicates less than 50% inhibition at 10 μM) | − (“−” indicates less than 50% inhibition at 10 μM) | − (“−” indicates less than 50% inhibition at 10 μM) | − (“−” indicates less than 50% inhibition at 10 μM) | − (“−” indicates less than 50% inhibition at 10 μM) | − (“−” indicates less than 50% inhibition at 10 μM) | A2: inhibition of radioligand binding [11]: − (“−” indicates less than 50% inhibition at 10 μM)
6 | CC(=O)N[C@H]1C(NC(=O)CCN)O[C@H](CO)[C@@H](O)[C@@H]1OCc1cccc2ccccc12 (stereo partly drawn) [compound 356] | + (“+” indicates greater than 50% inhibition at 10 μM) | − (“−” indicates less than 50% inhibition at 10 μM) | − (“−” indicates less than 50% inhibition at 10 μM) | − (“−” indicates less than 50% inhibition at 10 μM) | − (“−” indicates less than 50% inhibition at 10 μM) | − (“−” indicates less than 50% inhibition at 10 μM) | − (“−” indicates less than 50% inhibition at 10 μM) | − (“−” indicates less than 50% inhibition at 10 μM) | − (“−” indicates less than 50% inhibition at 10 μM) | − (“−” indicates less than 50% inhibition at 10 μM) |  |  |  |  |  |  |  |  |  |  | A8: inhibition of radioligand binding, human neurokinin (NK1) [3]: − (“−” indicates less than 50% inhibition at 10 μM)
